# Assay results: patent publication EP3685668B1, “COMPOSITION COMPRISING ACIBENZOLAR-S-METHYL AS EFFECTIVE INGREDIENT FOR CONTROLLING BURSAPHELENCHUS XYLOPHILUS DISEASE AND METHOD FOR CONTROLLING BURSAPHELENCHUS XYLOPHILUS USING SAME” (Industry Foundation of Chonnam National University, priority 2017, dated 2019)
# How the values were obtained:
# Assay in all cases: qRT-PCR expression of induced resistance gene in pine tree callus
# Type in all cases: cell-based
# Settings in all cases: 200 µg/mℓ, 24 hours
# Antipeptide = system: Antipeptide
# Procedure: (§1) For in vitro analysis of induced resistance, the expression of PR genes and other plant defense-related genes was determined, which are evolved in various defense mechanisms including induced resistance. The primers of sixteen induced resistance-related genes of pine tree used in this invention were listed in the below and elongation factor_1 alpha were used as a reference gene. [Table 4] The primer list of defense resistance-related genes
# (§2) After the treatment with 200 µg / mℓ of candidates of the selected induced resistance material, expression of the induced resistance-related gene in pine callus was determined by qRT-PCR using the primer pairs of defense resistance-related genes in Table 4. As a candidate group of an induced resistance material in pine tree, acibenzolar-S-methyl (ASM), TDL (Tiadinil), ITL (Isotianil), PBZ (Probenzole), AZO (Azoxystrobin), VMA (Validamycin A), MeJA (Methyl jasmonate), BABA (DL-3-aminobutyric acid), 2,3-BDO (2,3-Butanediol), GABA (r-Aminobutyric acid), glucan (Glucan), ER (Ergosterol), and AZA (Azelaic acid) were used. For the in vitro analysis of the expression of induced resistance gene in pine callus, the selected induced resistance materials were applied with 500 µℓ of LM liquid medium on a surface of pine tree callus (100 mg) in 12-well microplate to give final concentration of 200 µg/mℓ. Then, the callus surface was sufficiently reacted for 24 hours with the candidate of pine tree induced resistance material by shaking at 50 rpm in a 25 °C shaking incubator under dark condition. RNAs were extracted from the callus after completion of the reaction with an induced resistance material, followed by synthesis of cDNAs. Then, by carrying out qRT-PCR, the expression of induced resistance genes was determined. [Table 5] Expression of induced resistance gene in pine tree callus by TDL, PBZ, ASM, ITL, AZO, VMA, glucan, and AZA
# (§3) Based on the results of assay using young plants and gene expression by selected induce resistance materials, it seemed that acibenzolar-S-methyl had the most excellent effect. Thus, the following tests were carried out using acibenzolar-S-methyl only. Expression of the induced resistance genes at different culture time after the chemical treatment was examined. For the in vitro assay, LM medium containing pine tree callus was treated with acibenzolar-S-methyl at concentration of 200 µg / mℓ, followed by reaction for 1 day, 7 days, or 14 days in a 25°C shaking incubator under dark condition. RNAs were extracted from the callus after the reaction followed by synthesis of cDNAs. Then, by carrying out qRT-PCR, the expression of the induced resistance genes was determined. Depending on reaction time after the treatment, i.e., after 1 day, 7 days, or 14 days, the expression of the obtained induced resistance genes was examined. As a result of the in vitro callus assay depending on reaction time after the treatment with acibenzolar-S-methyl, the expression of the induced resistance-related genes is the highest at 1 day after the treatment with acibenzolar-S-methyl and gradually diminished over time, as it is shown in Table 7. In this regard, it is contemplated that the expression of genes acquired by acibenzolar-S-methyl is not maintained in highly expressed state until the pathogen invasion and just memorized with at minimum level so that the energy consumption by plant can be efficiently managed. [Table 7] Expression of induced resistance gene in pine tree callus by acibenzolar-S-methyl depending on reaction time
# (§4) To have an in vitro assay according to different methods of treatment with acibenzolar-S-methyl, two separate treatment methods, i.e., surface treatment (spraying treatment) of pine tree callus and direct application of the induced resistance material to an LM medium containing pine tree callus, were performed. […]
# Extensin = system: Extensin
# Procedure: as §1, §2, §3, §4
# Heat shock 70 = system: Heat shock 70
# Procedure: as §1, §2, §3, §4
# Hydroxyproline = system: Hydroxyproline
# Procedure: as §1, §2, §3, §4
# Metallothionein = system: Metallothionein
# Procedure: as §1, §2, §3, §4
# PR_10 family = system: PR_10 family
# Procedure: as §1, §2, §3, §4
# PR_1b family = system: PR_1b family
# Procedure: as §1, §2, §3, §4
# PR_2 family = system: PR_2 family
# Procedure: as §1, §2, §3, §4
# PR_3 family class 1 = system: PR_3 family class 1
# Procedure: as §1, §2, §3, §4
# PR_3 family class 4 = system: PR_3 family class 4
# Procedure: as §1, §2, §3, §4
# PR_4 family = system: PR_4 family
# Procedure: as §1, §2, §3, §4
# PR_5 family = system: PR_5 family
# Procedure: as §1, §2, §3, §4
# PR_9 family = system: PR_9 family
# Procedure: as §1, §2, §3, §4
# Xyloglucan = system: Xyloglucan
# Procedure: as §1, §2, §3, §4
Compound,"Expression of induced resistance gene, Antipeptide (Antipeptide)","Expression of induced resistance gene, Extensin (Extensin)","Expression of induced resistance gene, Heat shock 70 (Heat shock 70)","Expression of induced resistance gene, Hydroxyproline (Hydroxyproline)","Expression of induced resistance gene, Metallothionein (Metallothionein)","Expression of induced resistance gene, PR_10 family (PR_10 family)","Expression of induced resistance gene, PR_1b family (PR_1b family)","Expression of induced resistance gene, PR_2 family (PR_2 family)","Expression of induced resistance gene, PR_3 family class 1 (PR_3 family class 1)","Expression of induced resistance gene, PR_3 family class 4 (PR_3 family class 4)","Expression of induced resistance gene, PR_4 family (PR_4 family)","Expression of induced resistance gene, PR_5 family (PR_5 family)","Expression of induced resistance gene, PR_9 family (PR_9 family)","Expression of induced resistance gene, Xyloglucan (Xyloglucan)"
"CC(O)C(C)O (stereo not shown) [2,3-BDO, 2,3-Butanediol]",1.31,1.07,1.29,0.83,2.53,0.86,4.36,1.26,2.78,0.33,1.41,1.13,1.22,1.13
"NCCCC(=O)O [GABA, r-Aminobutyric acid]",1.13,1.83,2.58,5.98,0.92,1.57,1.78,1.66,3.07,8.75,1.95,3.78,0.7,3.46
"OCC1=C[C@@H](N[C@H]2C[C@H](CO)[C@@H](O[C@H]3O[C@@H](CO)[C@H](O)[C@@H](O)[C@@H]3O)[C@H](O)[C@H]2O)[C@H](O)[C@@H](O)[C@@H]1O [VMA, Validamycin A]",2.36,0.66,2.19,2.31,0.99,1.56,0.73,0.83,1.67,2.95,1.43,4.66,1.37,1.99
"CC(N)CC(=O)O (racemic) [BABA, DL-3-aminobutyric acid]",0.4,0.78,0.59,0.36,1.17,1.23,0.48,0.43,0.81,0.51,7.01,0.92,0.43,0.53
"CC/C=C\CC1C(=O)CCC1CC(=O)OC (stereo not shown) [MeJA, Methyl jasmonate]",0.43,0.93,0.69,0.53,0.21,1.34,0.5,0.47,0.54,0.79,5.86,0.95,0.47,0.44
